According to paper PMC6541917 (Journal of medicinal chemistry, 2018):

How the values were obtained:
HIV-1NL4–3 [1] = assay: antiviral p24 Gag assay in MT-4 cells, wild-type virus; assay type: cell-based; settings: Human immunodeficiency virus 1, MT4, read-out: mean IC50 ± SD
MT-4 cells = settings: ratio of CC50 to IC50
in vitro = settings: human
HIV-1ATV^R5μM = assay type: cell-based; settings: HIV-1ATV^R5μM compared to wild-type HIV-1NL4–3
HIV-1APV^R5 μM = assay type: cell-based; settings: HIV-1APV^R5 μM compared to wild-type HIV-1NL4–3
HIV-1NL4–3 [2] = assay: antiviral assay in MT-4 human T-lymphocytes exposed to HIV-1NL4–3; assay type: cell-based; settings: Human immunodeficiency virus 1, MT4, in Homo sapiens, read-out: antiviral IC50
HIV-1LPV^R5μM = assay type: cell-based; settings: HIV-1LPV^R5μM compared to wild-type HIV-1NL4–3
[3] = test system: multidrug-resistant HIV-1 variants; assay: microbe, parasite or virus in culture; assay type: cell-based; settings: Human immunodeficiency virus 1, read-out: antiviral IC50, range over variants

For `CC(C)CN(C[C@@H](O)[C@H](Cc1ccccc1)NC(=O)O[C@H]1CO[C@H]2OCC[C@H]21)S(=O)(=O)c1ccc(N)cc1` [DRV, darunavir, reference compound], which IC50 (HIV-1NL4–3 [1]) is on record?
The IC50 was 3.5 ± 0.09 nM.

Which selectivity index (MT-4 cells) does the source give for `COc1ccc(S(=O)(=O)N(CC(C)C)C[C@@H](O)[C@H](Cc2ccccc2)NC(=O)O[C@@H]2C[C@@H]3NC(=O)O[C@@H]3C2)cc1` [Inhibitor 4a, (3aS,5R,6aR)-2-Oxohexahydro-2H-cyclopenta[d]oxazol-5-yl ((2S,3R)-3-Hydroxy-4-((N-isobutyl-4-methoxyphenyl)-sulfonamido)-1-phenylbutan-2-yl)carbamate] here?
The selectivity index was greater than 2070.

Which CC50 (in vitro) does the source give for `COc1ccc(S(=O)(=O)N(CC(C)C)C[C@@H](O)[C@H](Cc2ccccc2)NC(=O)O[C@H]2C[C@H]3OC(=O)N(C)[C@H]3C2)cc1` [Inhibitor 4c, (3aS,5R,6aR)-3-Methyl-2-oxohexahydro-2H-cyclopenta[d]-oxazol-5-yl ((2S,3R)-3-Hydroxy-4-((N-isobutyl-4-methoxyphenyl)sulfonamido)-1-phenylbutan-2-yl)carbamate] here?
The CC50 was greater than 100000 nM.

What about the selectivity index (MT-4 cells) of the same compound?
The selectivity index was greater than 2778.

Which selectivity index (MT-4 cells) does the source give for `COc1ccc(S(=O)(=O)N(CC(C)C)C[C@@H](O)[C@H](Cc2ccccc2)NC(=O)O[C@@H]2C[C@@H]3OC(=O)N(C)[C@@H]3C2)cc1` [Inhibitor 4d, (3aR,5S,6aS)-3-Methyl-2-oxohexahydro-2H-cyclopenta[d]-oxazol-5-yl ((2S,3R)-3-Hydroxy-4-((N-isobutyl-4-methoxyphenyl)sulfonamido)-1-phenylbutan-2-yl)carbamate] here?
Its selectivity index is greater than 229.

With `C=C(C)CN1C(=O)O[C@@H]2C[C@H](OC(=O)N[C@@H](Cc3ccccc3)[C@H](O)CN(CC(C)C)S(=O)(=O)c3ccc(OC)cc3)C[C@@H]21` [Inhibitor 4k, (3aS,5R,6aR)-3-(2-Methylallyl)-2-oxohexahydro-2H-cyclopenta[d]oxazol-5-yl ((2S,3R)-3-Hydroxy-4-((N-isobutyl-4-methoxyphenyl)sulfonamido)-1-phenylbutan-2-yl)carbamate] as the compound, how does the “IC50 fold-change (in parentheses)” value (HIV-1ATV^R5μM) read?
Its value is 1.

What about the “IC50 fold-change (in parentheses)” value (HIV-1APV^R5 μM) of the same compound?
Its value is 11.

And the IC50 (HIV-1NL4–3 [2])?
The IC50 was 31 nM.

And the IC50 (HIV-1NL4–3 [1])?
Its IC50 is 23 ± 0.1 nM.

And the selectivity index (MT-4 cells)?
Its selectivity index is greater than 3226.

With `COc1ccc(S(=O)(=O)N(CC(C)C)C[C@@H](O)[C@H](Cc2ccccc2)NC(=O)O[C@H]2C[C@H]3OC(=O)N(CC(C)C)[C@H]3C2)cc1` [Inhibitor 4l, (3aS,5R,6aR)-3-Isobutyl-2-oxohexahydro-2H-cyclopenta[d]-oxazol-5-yl ((2S,3R)-3-Hydroxy-4-((N-isobutyl-4-methoxyphenyl)sulfonamido)-1-phenylbutan-2-yl)carbamate] as the compound, how does the “IC50 fold-change (in parentheses)” value (HIV-1ATV^R5μM) read?
The value was 1.

What about the “IC50 fold-change (in parentheses)” value (HIV-1APV^R5 μM) of the same compound?
Its value is 7.

And the “IC50 fold-change (in parentheses)” value (HIV-1LPV^R5μM)?
The value was 15.

What about the selectivity index (MT-4 cells) of the same compound?
Its selectivity index is greater than 2439.

And the IC50 [3]?
Its IC50 is 33 to 615 nM.
